Results from patent publication US20240390301A1, “COMBINATIONS OF PERIPHERAL 5-HT2A RECEPTOR ANTAGONISTS AND CENTRAL 5-HT2A RECEPTOR AGONISTS” (priority 2021, published 2024).
Where two headings read alike, the source gives them in different places.

What was measured:
5-HT2A receptor = target: T1, 5-HT2A receptor (Homo sapiens, UniProt P28223); experiment: 5-HT2A radioligand binding with [3H]ketanserin
T1 construct: WuXi AppTec (Hong Kong) Limited (contract laboratory that ran the assay)
Procedure: The binding affinities of key peripheral 5-HT2A receptor antagonists, as well as reference 5-HT2A agonists, at the ketanserin binding site of the 5-HT2A receptor and the mesulergine binding site of the 5-HT2C receptor were determined in radioligand binding experiments.
Method. Affinity of the test compounds for the 5-HT2A and 5-HT2C receptors was determined in radioligand binding experiments with [^3H] ketanserin and [^3H] mesulergine, respectively, by WuXi AppTec (Hong Kong) Limited, using methods adapted from the literature and under conditions described in Table 1.

5-HT2C receptor = target: T2, 5-HT2C receptor (Homo sapiens, UniProt P28335); experiment: biochemical; type: binding
T2 construct: WuXi AppTec (Hong Kong) Limited (contract laboratory that ran the assay)
T2 sequence (P28335 33-458): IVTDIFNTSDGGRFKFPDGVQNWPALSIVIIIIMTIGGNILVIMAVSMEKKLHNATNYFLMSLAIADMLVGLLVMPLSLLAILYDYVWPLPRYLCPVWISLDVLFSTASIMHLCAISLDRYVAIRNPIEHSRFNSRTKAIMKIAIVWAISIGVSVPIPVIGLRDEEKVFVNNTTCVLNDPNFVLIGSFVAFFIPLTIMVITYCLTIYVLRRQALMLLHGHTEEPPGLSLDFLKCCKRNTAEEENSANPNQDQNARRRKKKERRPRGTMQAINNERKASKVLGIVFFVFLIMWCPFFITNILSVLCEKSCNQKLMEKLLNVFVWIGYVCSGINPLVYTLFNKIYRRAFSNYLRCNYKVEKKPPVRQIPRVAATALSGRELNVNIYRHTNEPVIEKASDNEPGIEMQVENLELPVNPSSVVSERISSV

in vivo [1] = conditions: metabolite after 10 mg/kg SC of parent (sarpogrelate or Compound 14a)
Procedure: The pharmacokinetics of peripheral 5-HT2A antagonists were studied in the plasma (Tables 11 and 12) and brains (Table 13 and 14) of rats after subcutaneous (SC) dosing. The results were used to interpret the in vivo pharmacological results.
Animals. Male Sprague Dawley rats, aged 8-12 weeks. were used in these studies. Four rats were housed in each cage. […] Temperature and humidity were recorded by an auto-controlled data logger system. All animals were provided laboratory rodent diet and were fasted for 4 h pre-dose and 2 h post-dose. Reverse osmosis water treated with ultraviolet light was provided ad libitum. Animals were randomly assigned to treatment groups.
Drugs and Drug Administration. Test compounds were prepared as described above or commercially obtained. They were administered subcutaneously (SC) at a dose of 1 or 10 mg/kg (as indicated, calculated based on the free base) and at a volume of 5 mL/kg body weight.
Sample Collection and Bioanalysis. […] SC. […] For both studies, immediately after blood collection, plasma was harvested by centrifugation at 4,000 rpm for 10 min at 4° C. and samples were stored at −70±10° C. until bioanalysis. Following blood collection, animals were immediately sacrificed, the abdominal vena-cava was cut open, and the whole body was perfused from the heart using 10 mL of normal saline, and brain samples were collected from all animals. After isolation, brain samples were rinsed three times in ice-cold normal saline (for 5-10 seconds/rinse using ˜5-10 mL normal saline in disposable petri dish for each rinse) and dried on blotting paper. Brain samples were homogenized using ice-cold phosphate-buffered saline (pH 7.4). Total homogenate volume was three times the tissue weight. All homogenates were stored at −70±10° C. until bioanalysis. For bioanalysis, 25 μL aliquots of plasma/brain study samples or spiked plasma/brain calibration standards were added to individual pre-labeled micro-centrifuge tubes followed by 100 μL of an internal standard solution (glipizide, 500 ng/ml in acetonitrile) except for blanks, where 100 μL of acetonitrile was added. Samples were vortexed for 5 minutes and then centrifuged for 10 minutes at 4,000 rpm at 4° C. Following centrifugation, 100 μL of each clear supernatant was transferred to a 96-well plate and analyzed with a fit-for-purpose LC-MS/MS method, with authentic samples of each analyte used for calibration and identification.

in vitro [2] = experiment: in vitro; parameters: fraction unbound at 4 h: dose or concentration left out as unconfirmed; conditions: rat, brain homogenate
Procedure: Various putative peripheral 5-HT2A receptor antagonists were tested for binding to rat brain homogenate via equilibrium dialysis, with the results summarized in Table 7.
Method 1. Rat brain homogenate was thawed in a water bath at room temperature and then incubated at 37° C. for 10 min before use. Aliquots of 50 μL of loading matrix containing test compound (2 μM final incubation concentration) or control compound in triplicate were transferred to a Sample Collection Plate. The samples were matched with opposite blank buffer to obtain a final volume of 100 μL with a volume ratio of matrix: Dialysis Buffer of 1:1 (v:v) in each well. The stop solution (200 ng/mL tolbutamide and 200 ng/ml labetalol in ACN) was immediately added to these T0 samples of test compound and control compound. The plate was sealed and shaken at 800 rpm for 10 min. T0 samples were stored at 2-8° C. pending further processing along with other post-dialysis samples. An aliquot of 100 μL of the loading matrix containing test compound or control compound was transferred to the donor side of each dialysis well in triplicate and 100 μL of the Dialysis Buffer was loaded to the receiver side of the well. Then the plate was rotated at approximately 100 rpm in a humidified incubator with 5% CO2 at 37±1° C. for 4 hours. At the end of the dialysis. aliquots of 50 μL from the buffer side and matrix side of the dialysis device were taken into new 96-well plates (Sample Collection Plates). An equal volume of opposite blank matrix (buffer or matrix) in each sample was added to reach a final volume of 100 μL, with a volume ratio of matrix: Dialysis Buffer of 1:1 (v:v) in each well. All samples were further processed by protein precipitation before LC-MS/MS analysis.
Method 2. Aliquots (200 μL) of test compounds and positive controls at […] in rat brain homogenate (triplicates) were added to the rapid equilibrium dialysis (RED) chamber of dialysis inserts. A 350 μL aliquot of dialysis buffer was added to the buffer chamber of the inserts. After sealing the RED device with an adhesive film, dialysis was conducted at 37° C. with shaking at 100 RPM for 4 hours. Following dialysis, an aliquot of 50 μL was removed from each well (brain homogenate and buffer) and diluted with an equal volume of opposite matrix to nullify the matrix effect. Similarly, buffer was added to recovery and stability samples. An aliquot of 100 μL was used for LC-MS/MS analysis following protein precipitation with ACN containing internal standard.

[3] = Method 2: 3 times diluted homogenate, 37° C.
Procedure: Method 1. Pooled frozen rat brain homogenate was thawed in a water bath at 37° C. prior to the experiment. Using an Apricot automation workstation, 98 μL/well of blank brain homogenate or 100 mM PBS were added to all 96-well reaction plates (Blank, T0, T10, T30, T60, and T120). […] All reaction plates containing mixtures of compound and brain homogenate were incubated at 37° C. in a water bath for up to 120 minutes. At the end of incubation, 500 uL of stop solution (200 ng/mL tolbutamide and 200 ng/mL labetalol in ACN) was added to precipitate protein and mixed thoroughly for 20 minutes at 4° C. After centrifugation at 4,000 rpm and 4° C. for 20 minutes, an Apricot automation workstation was used to transfer 150 μL of supernatant from each reaction plate to its corresponding bioanaylsis plate, which was shaken for 10 minutes prior to LC-MS/MS analysis.
Method 2. Rat brain tissue homogenate samples were prepared by diluting one volume of whole rat brain tissue with two volumes of dialysis buffer (phosphate buffered saline pH 7.4-0.1 M sodium phosphate and 0.15 M sodium chloride) to yield 3 times diluted homogenate. Test compounds were spiked into 400 μL aliquots (n=3) of rat brain homogenate and the resulting mixtures were incubated at 37° C. […] An aliquot (100 μL) of each sample was transferred to a 96-well deep plate and analyzed by LC-MS/MS.

Rat plasma stability = type: in vitro ADME; conditions: Method 2: 5 μM, 37° C.
Procedure: The results were used to confirm that the plasma protein binding results were not confounded by poor plasma stability.
Method 1. […] Plasma was centrifuged at 4,000 rpm for 5 min and any clots were remove.
Method 2. […]

in vitro [4] = experiment: in vitro
Procedure: Method 1. Aliquots of 50 μL loading matrix containing test compound (2 μM final incubation concentration) or control compound in triplicate were transferred to a Sample Collection Plate. The samples were matched with opposite blank buffer to obtain a final volume of 100 μL, with a volume ratio of matrix: Dialysis Buffer of 1:1 (v:v) in each well. Stop solution (200 ng/ml tolbutamide and 200 ng/mL labetalol in ACN) was added to these TO samples of test compound and control compound. The plate was sealed and shaken at 800 rpm for 10 min. An aliquot of 100 μL of the loading matrix containing test compound or control compound was transferred to the donor side of each dialysis well in triplicate and 100 μL of the Dialysis Buffer was loaded to the receiver side of the well. Then the plate was rotated at approximately 100 rpm in a humidified incubator with 5% CO2 at 37±1° C. for 4 hours. At the end of the dialysis, aliquots of 50 μL samples from the buffer side and matrix side of the dialysis device were taken into new 96-well plates (Sample Collection Plates). An equal volume of opposite blank matrix (buffer or matrix) in each sample was added to reach a final volume of 100 μL, with volume ratio of matrix: Dialysis Buffer of 1:1 (v:v) in each well. All samples were further processed by protein precipitation before LC-MS/MS analysis.
Method 2. Aliquots (200 μL) of positive controls and test compounds at 5 μM (triplicates) were separately added to the plasma chamber and […] of phosphate buffered saline (pH 7.4) was added to the buffer chamber of the inserts. After sealing the rapid equilibrium dialysis (RED) device with an adhesive film, dialysis was performed in an incubator at 37° C. with shaking at 100 RPM for 4 hours. Aliquots (50 μL) of warfarin and test compounds were added to four 0.5 mL micro fuse tubes. Two aliquots were frozen immediately (0-minute sample). The other two aliquots were incubated at 37° C. for 4 hours along with the RED device. Following dialysis, an aliquot of 50 μL was removed from each well (both plasma and buffer side) and diluted with an equal volume of opposite matrix (dialyzed with the other matrix) to nullify the matrix effect. Similarly, 50 μL of buffer was added to recovery and stability samples. An aliquot of 100 μL was used for LC-MS/MS analysis following protein precipitation with ACN containing internal standard.

in vivo [5] = type: in vivo, rat
Procedure: The ratio of free brain concentration to free plasma concentration was calculated at 0.167 h and 0.5 h post administration for each compound using the data presented in the above examples and the following formula.
A smaller value for the free brain: free plasma ratio indicates greater peripheral restriction and therefore, better suitability for the methods of the present disclosure.

[6] = HEK293 stable cell line, 2 nM [3H]mesulergine, 1 h, 25° C., read-out: 5-HT2C Ki (nM) ([3H]mesulergine)
[7] = HEK293 stable cell line, 1 nM [3H]ketanserin, 1 h, 25° C., read-out: 5-HT2A Ki (nM) ([3H]ketanserin)
[8] = 10 mg/kg PK data, quantified as metabolite in PK studies of sarpogrelate and Compound 14a

T1 sequence (P28223 whole entry): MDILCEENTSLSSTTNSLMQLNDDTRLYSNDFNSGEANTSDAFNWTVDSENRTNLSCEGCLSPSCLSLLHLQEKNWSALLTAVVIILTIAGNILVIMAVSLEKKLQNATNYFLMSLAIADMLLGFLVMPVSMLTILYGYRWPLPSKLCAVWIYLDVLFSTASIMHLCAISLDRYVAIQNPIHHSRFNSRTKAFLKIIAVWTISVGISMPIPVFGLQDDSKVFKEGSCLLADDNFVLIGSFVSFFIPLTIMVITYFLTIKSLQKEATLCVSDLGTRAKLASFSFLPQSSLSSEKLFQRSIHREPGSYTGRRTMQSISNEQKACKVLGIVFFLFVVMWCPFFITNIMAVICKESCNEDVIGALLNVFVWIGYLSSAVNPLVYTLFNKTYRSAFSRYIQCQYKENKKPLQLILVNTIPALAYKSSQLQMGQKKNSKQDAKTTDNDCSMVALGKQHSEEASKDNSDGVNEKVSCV

**Q.** For `CCN(C)CCc1c[nH]c2cccc(O)c12` [Compound 4-HO-MET, 4-hydroxy-N-methyl-N-ethyltryptamine], which Ki (5-HT2A receptor) is on record?
**A.** 106 nM

**Q.** With `CCN(C)CCc1c[nH]c2ccc(F)cc12` [Compound 5-F-MET, 5-fluoro-N-methyl-N-ethyltryptamine] as the molecule, how does the Ki (5-HT2A receptor) read?
**A.** 140 nM

**Q.** And the Ki (5-HT2C receptor; [6])?
**A.** 59 nM

**Q.** For `CC(C)COc1ccc(CNC(=O)N(Cc2ccc(F)cc2)C2CCNCC2)cc1.Cl` [Compound 7, 1-(4-fluorobenzyl)-3-(4-isobutoxybenzyl)-1-(piperidin-4-yl)urea hydrochloride], which “Mean brain concentration 0.167 h (ng/g), analyzed as metabolite” value (in vivo [1]; 0.167 h) is on record?
**A.** BLQ

**Q.** And the “Mean brain concentration 0.5 h (ng/g), analyzed as metabolite” value (in vivo [1]; 0.5 h)?
**A.** BLQ

**Q.** And the fraction unbound at 4 h (in vitro [2])?
**A.** 0.002

**Q.** And the “% Remaining (120 minutes), rat brain homogenate” value [3]?
**A.** 69%

**Q.** What about the “% Remaining (120 minutes), rat plasma” value (Rat plasma stability) of the same molecule?
**A.** 96%

**Q.** What about the fraction unbound at 4 h, 5 μM (in vitro [4]; rat, plasma, pH 7.4) of the same molecule?
**A.** 0.038

**Q.** With `COc1cc(CC(C)N)c(OC)cc1I` (stereo not drawn) [DOI, 4-iodo-2,5-dimethoxyamphetamine] as the molecule, how does the Ki (5-HT2C receptor) read?
**A.** 70 nM

**Q.** Which Ki (5-HT2A receptor; [7]) does the source give for `CCCc1cc(OC)c(CC(C)N)cc1OC` (stereo not drawn) [DOPR, 2,5-dimethoxy-4-propylamphetamine] here?
**A.** 17.6 nM

**Q.** What about the Ki (5-HT2C receptor; [6]) of the same molecule?
**A.** 16.6 nM

**Q.** With `COc1cc(CCN)cc(OC)c1OC` [mescaline] as the molecule, how does the Ki (5-HT2A receptor; [7]) read?
**A.** 17400 nM

**Q.** And the Ki (5-HT2C receptor; [6])?
**A.** > 1880 nM

**Q.** What does the source list for `COc1cccc(CCc2ccccc2OCC(O)CN(C)C)c1` (stereo not drawn) [sarpogrelate M1]?
**A.** Mean brain concentration 0.167 h (ng/g), analyzed as metabolite (in vivo [1]; 0.167 h): 32.7 ng/g; Mean brain concentration 0.5 h (ng/g), analyzed as metabolite (in vivo [1]; 0.5 h): 97.4 ng/g; Mean plasma concentration 0.167 h (ng/mL), analyzed as metabolite (in vivo [1]; plasma, 0.167 h): 54.1 ng/mL; Mean plasma concentration 0.5 h (ng/mL), analyzed as metabolite (in vivo [1]; plasma, 0.5 h): 63.6 ng/mL; % Remaining (120 minutes), rat brain homogenate [3]: 84%; Free Brain:Free Plasma (0.167 h), metabolite (in vivo [5]; [8]): 0.52; Free Brain:Free Plasma (0.5 h), metabolite (in vivo [5]; [8]): 1.31; Peripheral restriction / brain penetration (in vivo [5]; from free brain:free plasma ratios): substantial brain penetration; % Remaining (120 minutes), rat plasma (Rat plasma stability): 94%; Mean % bound (rat plasma protein binding) (in vitro [4]; Method 2: RED, 5 μM, 4 hours, 37° C.): 97.2%
